Laboratory results published in patent US20090082341A1 (SYNOSIA THERAPEUTICS, priority 2007, published 2009).
“Also recorded” adds a separate entry of the source.

Test system: male Sprague-Dawley rats
Test: Differential-reinforcement-of-low-rate-30-seconds (DRL-30) test
Format: in vivo, rat
Settings: 3, 10 and 30 mg/kg po, 2 h before test
Source text: The differential-reinforcement-of low-rate (DRL) test is used not only to assess the potential antidepressant properties of drugs but also their anxiolytic potential. Animals are trained to respond to a certain stimulus by pressing a lever. Typical antidepressants, such as TCAs, increase the time between responses, thereby decreasing the response rate. They also increase the number of reinforced responses i.e. repeated pressing of the lever at least 30 seconds after the initial pressing of the lever. Opposite effects are observed with atypical antidepressants such as nomifensine and with benzodiazepine-like anxiolytics.
The method follows that described by Richards J B, Seiden L S. A quantitative interresponse-time analysis of DRL performance differentiates similar effects of the antidepressant desipramine and the novel anxiolytic gepirone. J Exp Anal Behav. 1991; 56:173-192. Stephens D N, Voet B. Differential effects of anxiolytic and non-anxiolytic benzodiazepine receptor ligands on performance of a differential reinforcement of low rate (DRL) schedule. Behav Pharmacol. 1994; 5:4-14. Typical antidepressants increase the inter-response times, therefore decreasing the rate of responding. They also increase the number of reinforcements. Opposite effects are observed with benzodiazepine-like anxiolytics or with atypical antidepressants.
Male adult Sprague-Dawley rats (Charles River, France) weighing approximately 350 g were used. The animals were housed one per cage in Macrolon Type 3 cages (810 cm^2) with sawdust bedding and wood shavings. Animals had free access to tap water and restricted access (15 g per day) to standard laboratory chow (Ratte Alleinfutter, extrudat No 3436; Provimikliba Kaiseraugst, Switzerland). The animal quarters were maintained on a 12:12 hr light-dark cycle with light onset at 6 a.m. Room temperature (22±2° C.) and humidity (55-65%) were kept constant. The experimental procedures used received prior approval from the City of Basel Cantonal Animal Protection Committee based on adherence to federal and local regulations on animal maintenance and testing. […]

With `COc1ccc(N2CCOCC2)c2sc(NC(=O)N3CCC(C)(O)CC3)nc12` [4-hydroxy-4-methyl-piperidine-1-carboxylic acid (4-methoxy-7-morpholin-4-yl-benzothiazol-2-yl)-amide] as the compound, how does the “mean inter-response time (time between responses)” value read?
The value was “decreased”.

And the “number of reinforcements (reinforced responses)” value?
Its value is “tended to decrease”.

And the “total number of responses” value?
The value was “dose-dependent increase; also recorded: significantly and dose-dependently increased”.
